# Reference: the Bradley open melting point set (2014)
row,SMILES,melting point [°C]
1,CC(=O)Oc1ccc(C(=O)O)cc1 [4-acetoxybenzoic_acid],194
2,CC(=O)Oc1ccc(-c2ccccc2)cc1 [4-acetoxybiphenyl],88
3,"Nn1cnnc1 [4-amino-1,2,4-triazole]",86
4,Nc1ccc(O)c([N+](=O)[O-])c1 [4-amino-2-nitrophenol],129
5,Cc1c(N)c(=O)n(-c2ccccc2)n1C [4-aminoantipyrine],108
6,NNC(=O)c1ccc(N)cc1 [4-aminobenzhydrazide],228
7,Nc1ccc(C(=O)O)cc1 [4-aminobenzoic acid] [listing 1 of 2 here],188
8,Nc1ccc(C(=O)O)cc1 [4-aminobenzoic acid] [listing 2 of 2 here],188
9,Nc1ccc(CO)cc1 [4-aminobenzyl alcohol],61
10,N#CCc1ccc(N)cc1 [4-aminobenzyl_cyanide],45
11,N#CCc1ccc(N)cc1 [4-aminophenylacetonitrile],44
12,O=C(c1ccccc1)c1ccc(-c2ccccc2)cc1 [4-benzoylbiphenyl],101
13,OB(O)c1ccc(OCc2ccccc2)c(F)c1 [4-benzyloxy-3-fluorobenzeneboronic acid],130
14,N#CCc1ccc(Cc2ccccc2)cc1 [4-benzylphenylacetonitrile],36
15,Cc1ccc(Cc2ccccc2)cc1 [4-benzyltoluene],5
16,"Nc1c(F)cc(Br)cc1F [4-bromo-2,6-difluoroaniline]",64
17,"Cc1cc(Br)cc(C)c1N=C=S [4-bromo-2,6-dimethylphenyl isothiocyanate]",80
18,Oc1ccc(Br)cc1-c1cc[nH]n1 [4-bromo-2-(1h-pyrazol-3-yl)phenol],162
19,Oc1ccc(Br)cc1-c1ccno1 [4-bromo-2-(5-isoxazolyl)phenol],211
20,O=S(=O)(Cl)c1ccc(Br)cc1C(F)(F)F [4-bromo-2-(trifluoromethyl)benzenesulfonyl chloride],56
21,Cc1cc(Br)cc(Cl)c1N [4-bromo-2-chloro-6-methylaniline],39
22,OB(O)c1ccc(Br)cc1F [4-bromo-2-fluorobenzeneboronic acid],240
23,Cc1cc(N)ccc1Br [4-bromo-3-methylaniline],81
24,Nc1ccc(Br)cc1 [4-bromoaniline],63
25,COc1ccc(Br)cc1 [4-bromoanisole],11

row,SMILES,melting point [°C]
1,OB(O)c1ccc(Br)cc1 [4-bromobenzeneboronic acid],284
2,O=C(O)c1ccc(Br)cc1 [4-bromobenzoic acid],256
3,OCc1ccc(Br)cc1 [4-bromobenzyl alcohol],78
4,ClCc1ccc(Br)cc1 [4-bromobenzyl chloride],40
5,Sc1ccc(Br)cc1 [4-bromothiophenol],75
6,Cc1ccc(Br)cc1 [4-bromotoluene],28
7,O=S(=O)(Nc1ccc(Cl)cc1)c1ccccc1 [4-chloro-1-phenylsulfonamidobenzene],122
8,"Cc1cc(Cl)c(C)cc1N [4-chloro-2,5-dimethylaniline]",92
9,Oc1ccc(Cl)cc1-c1ccno1 [4-chloro-2-(5-isoxazolyl)phenol],202
10,Cc1cc(Cl)c2ccccc2n1 [4-chloro-2-methylquinoline],25
11,Cc1ccc(Cl)cc1[N+](=O)[O-] [4-chloro-2-nitrotoluene],39
12,"Cc1cc(O)cc(C)c1Cl [4-chloro-3,5-dimethylphenol]",115
13,Cc1cc(B(O)O)ccc1Cl [4-chloro-3-methylbenzeneboronic acid],240
14,Cc1ccc(Cl)c([N+](=O)[O-])c1 [4-chloro-3-nitrotoluene],7
15,Nc1ccc(Cl)cc1N [4-chloro-o-phenylenediamine],72
16,O=S(=O)(Cl)c1ccc(Cl)cc1 [4-chlorobenzenesulfonyl chloride],52
17,O=C(c1ccccc1)c1ccc(Cl)cc1 [4-chlorobenzophenone],76
18,SCc1ccc(Cl)cc1 [4-chlorobenzyl mercaptan],20
19,ClCc1ccc(Cl)cc1 [4-chlorobenzyl_chloride],30
20,C=Cc1ccc(Cl)cc1 [4-chlorostyrene],-16
21,Sc1ccc(Cl)cc1 [4-chlorothiophenol],50
22,O=C1CCOc2ccccc21 [4-chromanone],38
23,CCCCCc1ccc(-c2ccc(C#N)cc2)cc1 [4-cyano-4'-n-pentylbiphenyl],23
24,CCCCc1ccc(C(=O)Oc2ccc(C#N)cc2)cc1 [4-cyanophenyl 4-n-butylbenzoate],68
25,CCCc1ccc(C(=O)Oc2ccc(C#N)cc2)cc1 [4-cyanophenyl 4-n-propylbenzoate],102

row,SMILES,melting point [°C]
1,N#Cc1ccncc1 [4-cyanopyridine],78
2,CN(C)c1ccc(C(=O)Cl)cc1 [4-dimethylaminobenzoyl chloride],145
3,CN(C)c1ccc(N=C=S)cc1 [4-dimethylaminophenyl isothiocyanate],67
4,CCOc1ccc(B(O)O)cc1 [4-ethoxybenzeneboronic acid],167
5,CCOc1ccc(N=C=S)cc1 [4-ethoxyphenyl isothiocyanate],59
6,CCN1CCOCC1 [4-ethylmorpholine],-63
7,CCc1ccc(C)cc1 [4-ethyltoluene],-62
8,Cc1cc(F)ccc1B(O)O [4-fluoro-2-methylbenzeneboronic acid],200
9,Cc1cc(F)ccc1O [4-fluoro-2-methylphenol],34
10,Nc1ccc(F)cc1[N+](=O)[O-] [4-fluoro-2-nitroaniline],92
11,O=Cc1cc(B(O)O)ccc1F [4-fluoro-3-formylbenzeneboronic acid],240
12,Cc1cc(B(O)O)ccc1F [4-fluoro-3-methylbenzeneboronic acid],210
13,O=C(O)c1ccc(F)cc1 [4-fluorobenzoic acid] [listing 1 of 2 here],185
14,O=C(O)c1ccc(F)cc1 [4-fluorobenzoic acid] [listing 2 of 2 here],185
15,O=C(O)/C=C/c1ccc(F)cc1 [4-fluorocinnamic acid],209
16,Oc1ccc(F)cc1 [4-fluorophenol] [listing 1 of 2 here],46.5
17,Oc1ccc(F)cc1 [4-fluorophenol] [listing 2 of 2 here],46
18,CCCC(=O)CCC [4-heptanone],-33
19,Oc1cccc2[nH]nnc12 [4-hydroxy-1h-benzotriazole],222
20,"Cc1cc(C=O)cc(C)c1O [4-hydroxy-3,5-dimethylbenzaldehyde]",114
21,O=Cc1ccc(O)cc1 [4-hydroxybenzaldehyde],118
22,O=C(O)c1ccc(O)cc1 [4-hydroxybenzoic_acid],217
23,OCc1ccc(O)cc1 [4-hydroxybenzyl alcohol],118
24,N#CCc1ccc(O)cc1 [4-hydroxybenzyl_cyanide],71
25,O=C(/C=C/c1ccc(O)cc1)c1ccccc1 [4-hydroxychalcone],184
